Data as given in paper PMC11995724, “Antibiotic target discovery by integrated phenotypic and activity-based profiling of electrophilic fragments” (Cell chemical biology, 2025).

Experiment: in vitro
Conditions: human, hek293t cells

Row | Compound | viability at 48 h, 25 µM [%]
1 | CCN(CC)C(=O)/C(C#N)=C/c1cc(O)c(O)c([N+](=O)[O-])c1 [9-B04, (2E)-2-cyano-3-(3,4-dihydroxy-5-nitrophenyl)-N,N-diethylprop-2-enamide] | 105
2 | Cc1c(Cl)cccc1NC(=O)C(C#N)=Cc1cccs1 [9-B05, N-(3-chloro-2-methylphenyl)-2-cyano-3-(thiophen-2-yl)prop-2-enamide] | 108
3 | N#CC(=Cc1cccc(-c2ccncc2)c1)C(=O)NCc1ccco1 [9-B06, 2-cyano-N-[(furan-2-yl)methyl]-3-[3-(pyridin-4-yl)phenyl]prop-2-enamide] | 68.2
4 | N#CC(=Cc1c[nH]c2ccccc12)C(=O)Nc1ccc2c(c1)OCCO2 [9-B07, 2-cyano-N-(2,3-dihydro-1,4-benzodioxin-6-yl)-3-(1H-indol-3-yl)prop-2-enamide] | 101
5 | N#CC(=Cc1ccc(-c2ccccc2)cc1)C(=O)N1CCCC1 [9-B08, 3-{[1,1'-biphenyl]-4-yl}-2-(pyrrolidine-1-carbonyl)prop-2-enenitrile] | 71.2
6 | C=CCNC(=O)C(C#N)=Cc1cccc(O)c1 [9-B09, 2-cyano-3-(3-hydroxyphenyl)-N-(prop-2-en-1-yl)prop-2-enamide] | 113
7 | N#CC(=Cc1c[nH]c2ccccc12)C(=O)Nc1ccccn1 [9-B10, 2-cyano-3-(1H-indol-3-yl)-N-(pyridin-2-yl)prop-2-enamide] | 111
8 | N#CC(=Cc1ccco1)C(=O)NCCc1ccc(F)cc1F [9-B11, 2-cyano-N-[2-(2,4-difluorophenyl)ethyl]-3-(furan-2-yl)prop-2-enamide] | 122
9 | N#CC(=Cc1csc(COc2ccccc2)n1)C(N)=O [9-B12, 2-cyano-3-[2-(phenoxymethyl)-1,3-thiazol-4-yl]prop-2-enamide] | 116
10 | CCCCNC(=O)C(C#N)=Cc1ccsc1 [9-B13, N-butyl-2-cyano-3-(thiophen-3-yl)prop-2-enamide] | 102
11 | CNC(=O)C(C#N)=Cc1ccc(F)cc1 [9-B14, 2-cyano-3-(4-fluorophenyl)-N-methylprop-2-enamide] | 109
12 | CC(C)c1nc(C=C(C#N)C(=O)NC2CCCCC2)c2ccccn12 [9-B15, 2-cyano-N-cyclohexyl-3-[3-(propan-2-yl)imidazo[1,5-a]pyridin-1-yl]prop-2-enamide] | 103
13 | CC(C)NC(=O)C(C#N)=Cc1ccc(-c2ccc([N+](=O)[O-])cc2)s1 [9-B16, 2-cyano-3-[5-(4-nitrophenyl)thiophen-2-yl]-N-(propan-2-yl)prop-2-enamide] | 99.6
14 | Cc1cc(C=C(C#N)C(=O)Nc2cnn(C)c2)c(C)n1C1CCCCC1 [9-B17, 2-cyano-3-(1-cyclohexyl-2,5-dimethyl-1H-pyrrol-3-yl)-N-(1-methyl-1H-pyrazol-4-yl)prop-2-enamide] | 96.1
15 | Cc1nc2cc(NC(=O)C(C#N)=Cc3ccco3)ccc2n1C [9-B18, 2-cyano-N-(1,2-dimethyl-1H-1,3-benzodiazol-5-yl)-3-(furan-2-yl)prop-2-enamide] | 106
16 | Cc1ccc(NC(=O)C(C#N)=CC2=Cc3ccccc3OC2)cc1 [9-B19, 3-(2H-chromen-3-yl)-2-cyano-N-(4-methylphenyl)prop-2-enamide] | 119
17 | N#CC(=Cc1ccco1)C(=O)NCc1nc(-c2ccncc2)cs1 [9-B20, 2-cyano-3-(furan-2-yl)-N-{[4-(pyridin-4-yl)-1,3-thiazol-2-yl]methyl}prop-2-enamide] | 109
18 | CN(C)c1ccc(C=C(C#N)C(=O)Nc2ccc3c(c2)OCCO3)cc1 [9-B21, 2-cyano-N-(2,3-dihydro-1,4-benzodioxin-6-yl)-3-[4-(dimethylamino)phenyl]prop-2-enamide] | 110

Row | Compound | viability at 48 h, 25 µM [%]
19 | COc1ccc(C=C(C#N)C(=O)Nc2cc(C)ccc2C)cc1Cl [9-B22, 3-(3-chloro-4-methoxyphenyl)-2-cyano-N-(2,5-dimethylphenyl)prop-2-enamide] | 92.9
20 | CCCCNC(=O)C(C#N)=Cc1cc(C)cc(C)c1 [9-C03, N-butyl-2-cyano-3-(3,5-dimethylphenyl)prop-2-enamide] | 122
21 | COc1cc(C)c(C=C(C#N)C(=O)Nc2ccc(C)cc2)cc1C(C)C [9-C04, 2-cyano-3-[4-methoxy-2-methyl-5-(propan-2-yl)phenyl]-N-(4-methylphenyl)prop-2-enamide] | 127
22 | CCCNC(=O)C(C#N)=Cc1ccc(-n2cncn2)c(C)c1 [9-C05, 2-cyano-3-[3-methyl-4-(1H-1,2,4-triazol-1-yl)phenyl]-N-propylprop-2-enamide] | 96
23 | CCOc1ccc(C=C(C#N)C(=O)Nc2nccs2)cc1 [9-C06, 2-cyano-3-(4-ethoxyphenyl)-N-(1,3-thiazol-2-yl)prop-2-enamide] | 94.3
24 | CC(C)NC(=O)C(C#N)=Cc1cccc(Cl)c1Cl [9-C07, 2-cyano-3-(2,3-dichlorophenyl)-N-(propan-2-yl)prop-2-enamide] | 39.7
25 | COc1ccc(NC(=O)C(C#N)=Cc2cccc(O)c2)cc1Cl [9-C08, N-(3-chloro-4-methoxyphenyl)-2-cyano-3-(3-hydroxyphenyl)prop-2-enamide] | 102
26 | CC(C)NC(=O)C(C#N)=Cc1ccc(Cl)cc1 [9-C09, 3-(4-chlorophenyl)-2-cyano-N-(propan-2-yl)prop-2-enamide] | 86.7
27 | C#CCOc1ccccc1C=C(C#N)C(=O)Nc1ccccc1F [9-C10, 2-cyano-N-(2-fluorophenyl)-3-[2-(prop-2-yn-1-yloxy)phenyl]prop-2-enamide] | 80.4
28 | CCCCNC(=O)C(C#N)=Cc1cc(C)ccc1C [9-C11, N-butyl-2-cyano-3-(2,5-dimethylphenyl)prop-2-enamide] | 93.1
29 | C=CCNC(=O)C(C#N)=Cc1ccc(-c2ccc(F)cc2)s1 [9-C12, 2-cyano-3-[5-(4-fluorophenyl)thiophen-2-yl]-N-(prop-2-en-1-yl)prop-2-enamide] | 111
30 | CC(C)NC(=O)C(C#N)=Cc1ccc2ccccc2c1 [9-C13, 2-cyano-3-(naphthalen-2-yl)-N-(propan-2-yl)prop-2-enamide] | 77.9
31 | N#CC(=Cc1ccc(SC(F)(F)F)cc1)C(=O)NC1CC1 [9-C14, 2-cyano-N-cyclopropyl-3-{4-[(trifluoromethyl)sulfanyl]phenyl}prop-2-enamide] | 55.5
32 | CC(C)NC(=O)C(C#N)=Cc1ccccc1OC(C)C [9-C15, 2-cyano-N-(propan-2-yl)-3-[2-(propan-2-yloxy)phenyl]prop-2-enamide] | 112
33 | N#CC(=Cc1csc(C2CC2)n1)C(=O)Nc1ccccc1C(=O)O [9-C16, 2-[2-cyano-3-(2-cyclopropyl-1,3-thiazol-4-yl)prop-2-enamido]benzoic acid] | 92.9
34 | N#CC(=Cc1ccsc1)C(=O)Nc1nccs1 [9-C17, 2-cyano-N-(1,3-thiazol-2-yl)-3-(thiophen-3-yl)prop-2-enamide] | 121
35 | N#CC(=Cc1sc2ccccc2c1Cl)C(=O)NC1CC1 [9-C18, 3-(3-chloro-1-benzothiophen-2-yl)-2-cyano-N-cyclopropylprop-2-enamide] | 86.4
36 | N#CC(=Cc1cccc(O)c1)C(=O)Nc1ccc(SC(F)F)cc1 [9-C19, 2-cyano-N-{4-[(difluoromethyl)sulfanyl]phenyl}-3-(3-hydroxyphenyl)prop-2-enamide] | 99.7
